Converted amounts (≈) assume the structure as drawn.
Columns and labels:
DNA gyrase = DNA gyrase (Escherichia coli, UniProt P0AES4+P0AES6); test: Inhibition of Escherichia coli DNA gyrase by measuring supercoiling activity incubated for 60 mins by fluorescence based assay; type: protein-complex assay
Escherichia coli [1] = test: Antibacterial activity against Escherichia coli ATCC 25922 by CLSI method; type: functional
Escherichia coli [2] = test: Antibacterial activity against Escherichia coli ATCC 25922 in presence of PAbetaN by CLSI method; type: functional
Staphylococcus aureus [3] = test: Antibacterial activity against Staphylococcus aureus ATCC 29213 by CLSI method; type: functional
Staphylococcus aureus [4] = test: Antibacterial activity against Methicillin-resistant Staphylococcus aureus by CLSI method; type: functional
Enterococcus = test: Antibacterial activity against Vancomycin-resistant Enterococcus by CLSI method; type: functional
Streptococcus pneumoniae [5] = test: Antibacterial activity against genotype penicillin-resistant Streptococcus pneumoniae by CLSI method; type: functional
Enterococcus faecium = test: Antibacterial activity against vancomycin-resistant Enterococcus faecium ATCC 51559 by CLSI method; type: functional
Enterococcus faecalis [6] = test: Antibacterial activity against Enterococcus faecalis ATCC 29212 by CLSI method; type: functional
Enterococcus faecalis [7] = test: Antibacterial activity against vancomycin-resistant Enterococcus faecalis ATCC 51575 by CLSI method; type: functional
Streptococcus pneumoniae [8] = test: Antibacterial activity against Streptococcus pneumoniae ATCC 49619 by CLSI method; type: functional
Streptococcus anginosus = test: Antibacterial activity against Streptococcus anginosus ATCC 33397 by CLSI method; type: functional
[9] = Inhibition of Escherichia coli topoisomerase IV by measuring relaxation activity incubated for 30 mins by fluorescence based assay

Structure (SMILES) | IC50 (DNA gyrase) | MIC (Escherichia coli [1]) | MIC (Escherichia coli [2]) | MIC (Staphylococcus aureus [3]) | other results
CNc1cc(F)cc2cc(C(=O)Nc3ccc(C(=O)O)c(O)c3)c(=O)[nH]c12 | 2.05 nM | > 32 µg/mL | 1 µg/mL | > 32 µg/mL | –
CNc1cc(F)cc2cc(C(=O)Nc3ccc(C(=O)O)cc3CNC3CCCCC3)c(=O)[nH]c12.O=C(O)C(F)(F)F | 0.26 nM | 32 µg/mL | 0.5 µg/mL | 16 µg/mL | –
CNc1cc(F)cc2cc(C(=O)Nc3ccc(CO)cc3CN(C)C3CCCCC3)c(=O)[nH]c12 | 1.92 nM | 16 µg/mL (≈ 34.3 µM) | 0.06 µg/mL | 4 µg/mL (≈ 8.57 µM) | –
C[C@H]1COc2c(N3CCN(C)CC3)c(F)cc3c(=O)c(C(=O)O)cn1c23.C[C@H]1COc2c(N3CCN(C)CC3)c(F)cc3c(=O)c(C(=O)O)cn1c23.O [LEVOFLOXACIN] | – | – | – | – | MIC50 (Staphylococcus aureus [4]): 16 µg/mL; MIC90 (Staphylococcus aureus [4]): > 128 µg/mL; MIC50 (Enterococcus): 8 µg/mL; MIC90 (Enterococcus): 128 µg/mL; MIC50 (Streptococcus pneumoniae [5]): 2 µg/mL; MIC90 (Streptococcus pneumoniae [5]): 2 µg/mL
CCCCCCCCCC(=O)N[C@@H](Cc1c[nH]c2ccccc12)C(=O)N[C@H](CC(N)=O)C(=O)N[C@@H](CC(=O)O)C(=O)N[C@@H]1C(=O)NCC(=O)N[C@@H](CCCN)C(=O)N[C@@H](CC(=O)O)C(=O)N[C@H](C)C(=O)N[C@@H](CC(=O)O)C(=O)NCC(=O)N[C@H](CO)C(=O)N[C@@H]([C@H](C)CC(=O)O)C(=O)N[C@@H](CC(=O)c2ccccc2N)C(=O)O[C@@H]1C | – | – | – | – | MIC50 (Staphylococcus aureus [4]): 1 µg/mL (≈ 0.617 µM); MIC90 (Staphylococcus aureus [4]): 1 µg/mL (≈ 0.617 µM); MIC50 (Enterococcus): 2 µg/mL (≈ 1.23 µM); MIC90 (Enterococcus): 4 µg/mL (≈ 2.47 µM)
CN[C@H](CC(C)C)C(=O)N[C@H]1C(=O)N[C@@H](CC(N)=O)C(=O)N[C@H]2C(=O)N[C@H]3C(=O)N[C@H](C(=O)N[C@H](C(=O)O)c4cc(O)cc(O)c4-c4cc3ccc4O)[C@H](O)c3ccc(c(Cl)c3)Oc3cc2cc(c3O[C@@H]2O[C@H](CO)[C@@H](O)[C@H](O)[C@H]2O[C@H]2C[C@](C)(N)[C@H](O)[C@H](C)O2)Oc2ccc(cc2Cl)[C@H]1O [VANCOMYCIN] | – | > 128 µg/mL | – | – | MIC50 (Staphylococcus aureus [4]): 1 µg/mL (≈ 0.69 µM); MIC90 (Staphylococcus aureus [4]): 2 µg/mL (≈ 1.38 µM); MIC (Enterococcus faecium): > 128 µg/mL; MIC (Enterococcus faecalis [6]): 2 µg/mL (≈ 1.38 µM); MIC (Enterococcus faecalis [7]): > 128 µg/mL; MIC (Streptococcus pneumoniae [8]): 0.25 µg/mL (≈ 0.173 µM); MIC (Streptococcus anginosus): 0.5 µg/mL (≈ 0.345 µM); MIC50 (Enterococcus): > 128 µg/mL; MIC90 (Enterococcus): > 128 µg/mL; MIC50 (Streptococcus pneumoniae [5]): 0.25 µg/mL (≈ 0.173 µM); MIC90 (Streptococcus pneumoniae [5]): 0.5 µg/mL (≈ 0.345 µM)
CC1(C)S[C@@H]2[C@H](NC(=O)Cc3ccccc3)C(=O)N2[C@H]1C(=O)O [PENICILLIN G] | – | – | – | – | MIC50 (Streptococcus pneumoniae [5]): 2 µg/mL (≈ 5.98 µM); MIC90 (Streptococcus pneumoniae [5]): 4 µg/mL (≈ 12 µM)
CNc1cc(F)cc2cc(C(=O)Nc3ccc(C(=O)O)cc3CNCCO)c(=O)[nH]c12.Cl | 129 nM | > 64 µg/mL | 2 µg/mL | > 64 µg/mL | –
CNc1cc(F)cc2c(NCC3(N)CCC3)c(C(=O)Nc3ccc(C(=O)O)cc3)c(=O)[nH]c12.O=CO | 2.15 nM | > 32 µg/mL | 0.25 µg/mL | > 32 µg/mL | –
CNc1cc(F)cc2c(NCCCN)c(C(=O)Nc3ccc(C(=O)O)cc3)c(=O)[nH]c12.O=CO | 0.52 nM | > 8 µg/mL | 2 µg/mL | > 8 µg/mL | –
CNc1cc(F)cc2c(NCCN3CCOCC3)c(C(=O)Nc3ccc(C(=O)O)cc3)c(=O)[nH]c12.O=CO | 14.6 nM | > 64 µg/mL | 0.12 µg/mL | 32 µg/mL | –
CNc1cc(F)cc2c(N[C@H]3C[C@@H](N)C3)c(C(=O)Nc3ccc(C(=O)O)cc3)c(=O)[nH]c12.O=CO | 2.66 nM | > 32 µg/mL | 1 µg/mL | > 32 µg/mL | –
CNc1cc(F)cc2cc(C(=O)Nc3ccc(C(=O)O)cc3CN(C)C3CC3)c(=O)[nH]c12 | 0.6 nM | > 8 µg/mL | ≤ 0.03 µg/mL | > 8 µg/mL | IC50 [9]: 771 nM
CNc1cc(F)cc2cc(C(=O)Nc3ccc(C(=O)O)cc3CN(CC(=O)O)C3CCCCC3)c(=O)[nH]c12 | 0.57 nM | > 64 µg/mL | 0.12 µg/mL | 32 µg/mL (≈ 61 µM) | IC50 [9]: 76.3 nM
CNc1cc(F)cc2cc(C(=O)Nc3cnc(C(=O)O)nc3)c(=O)[nH]c12 | 0.95 nM | > 16 µg/mL | > 16 µg/mL | > 16 µg/mL | IC50 [9]: 32.5 nM
Cc1onc(-c2ccccc2)c1C(=O)N[C@@H]1C(=O)N2[C@@H]1SC(C)(C)[C@@H]2C(=O)O [OXACILLIN] | – | – | – | – | MIC50 (Staphylococcus aureus [4]): > 128 µg/mL; MIC90 (Staphylococcus aureus [4]): > 128 µg/mL
CNc1cc(F)cc2cc(C(=O)Nc3ccc(C(N)=O)cc3CN(C)C3CCCCC3)c(=O)[nH]c12 | 2.48 nM | > 32 µg/mL | ≤ 0.03 µg/mL | > 32 µg/mL | –

Structure (SMILES) | IC50 (DNA gyrase) | MIC (Escherichia coli [1]) | MIC (Escherichia coli [2]) | MIC (Staphylococcus aureus [3]) | other results
CNc1cc(F)cc2cc(C(=O)Nc3ccc(C(=O)N(C)CCN4CCOCC4)cc3)c(=O)[nH]c12 | 6.36 nM | > 16 µg/mL | 0.12 µg/mL | 16 µg/mL (≈ 33.2 µM) | –
CNc1cc(F)cc2c(NCCN)c(C(=O)Nc3ccc(C(=O)O)cc3)c(=O)[nH]c12.O=CO | 0.94 nM | > 16 µg/mL | 4 µg/mL | > 16 µg/mL | –
CC(=O)NC[C@H]1CN(c2ccc(N3CCOCC3)c(F)c2)C(=O)O1 [LINEZOLID] | – | – | – | – | MIC50 (Staphylococcus aureus [4]): 4 µg/mL (≈ 11.9 µM); MIC90 (Staphylococcus aureus [4]): 4 µg/mL (≈ 11.9 µM); MIC50 (Enterococcus): 4 µg/mL (≈ 11.9 µM); MIC90 (Enterococcus): 4 µg/mL (≈ 11.9 µM)
C[C@@H](O)[C@H]1C(=O)N2C(C(=O)O)=C(S[C@@H]3CN[C@H](C(=O)N(C)C)C3)[C@H](C)[C@H]12 [MEROPENEM] | – | – | – | – | MIC50 (Streptococcus pneumoniae [5]): 0.5 µg/mL (≈ 1.3 µM); MIC90 (Streptococcus pneumoniae [5]): 1 µg/mL (≈ 2.61 µM)
CNCCc1c(C(=O)Nc2ccc(C(=O)O)cc2)c(=O)[nH]c2c(NC)cc(F)cc12.O=C(O)C(F)(F)F | 109 nM | > 8 µg/mL | > 8 µg/mL | > 8 µg/mL | –
CNc1cc(F)cc2cc(C(=O)Nc3ccc(C(=O)NCCN4CCOCC4)cc3)c(=O)[nH]c12 | 7.29 nM | 4 µg/mL (≈ 8.56 µM) | 0.06 µg/mL | > 16 µg/mL | IC50 [9]: 1300 nM
CNCCNc1c(C(=O)Nc2ccc(C(=O)O)cc2)c(=O)[nH]c2c(NC)cc(F)cc12.O=CO | 2.09 nM | > 16 µg/mL | 8 µg/mL | > 16 µg/mL | –
CNc1cc(F)cc2c(O)c(C(=O)Nc3ccc(C(=O)NS(=O)(=O)N(C)C)cc3CN3CCCCC3)c(=O)[nH]c12 | 4.44 nM | 64 µg/mL (≈ 111 µM) | 0.06 µg/mL | – | –
CNc1cc(F)cc2cc(C(=O)Nc3ccc(C(=O)O)cc3CN(C)C3CCCCC3)c(=O)[nH]c12.Cl | 0.53 nM | 8 µg/mL | ≤ 0.03 µg/mL | 2 µg/mL | IC50 [9]: 47.4 nM
CCCCCN(C)Cc1cc(C(=O)O)ccc1NC(=O)c1cc2cc(F)cc(NC)c2[nH]c1=O | 0.21 nM | 4 µg/mL (≈ 8.54 µM) | ≤ 0.03 µg/mL | 0.5 µg/mL (≈ 1.07 µM) | IC50 [9]: 41.4 nM
CNc1cc(F)cc2c(NCC3CNC3)c(C(=O)Nc3ccc(C(=O)O)cc3)c(=O)[nH]c12.O=CO | 0.66 nM | > 16 µg/mL | – | > 16 µg/mL | –
CNc1cc(F)cc2cc(C(=O)Nc3ccc(C(=O)NCCN)cc3)c(=O)[nH]c12.Cl | 9.4 nM | > 8 µg/mL | > 8 µg/mL | > 8 µg/mL | –
CC[C@H]1OC(=O)[C@H](C)[C@@H](O[C@H]2C[C@@](C)(OC)[C@@H](O)[C@H](C)O2)[C@H](C)[C@@H](O[C@@H]2O[C@H](C)C[C@H](N(C)C)[C@H]2O)[C@](C)(O)C[C@@H](C)CN(C)[C@H](C)[C@@H](O)[C@]1(C)O [AZITHROMYCIN] | – | – | – | – | MIC50 (Streptococcus pneumoniae [5]): > 128 µg/mL; MIC90 (Streptococcus pneumoniae [5]): > 128 µg/mL
CNCCCc1c(C(=O)Nc2ccc(C(=O)O)cc2)c(=O)[nH]c2c(NC)cc(F)cc12.O=C(O)C(F)(F)F | 131 nM | > 32 µg/mL | > 32 µg/mL | – | –
CNc1cc(F)cc2cc(C(=O)Nc3ccc(C(=O)O)cc3CN(CCN)C3CCCCC3)c(=O)[nH]c12.O=C(O)C(F)(F)F | 3.68 nM | > 64 µg/mL | 16 µg/mL | > 64 µg/mL | –
CNc1cc(F)cc2c(NCC3CCNCC3)c(C(=O)Nc3ccc(C(=O)O)cc3)c(=O)[nH]c12.O=CO | 1.31 nM | > 32 µg/mL | 0.5 µg/mL | > 32 µg/mL | –
